The values below come from PubChem BioAssay AID720737 (The Scripps Research Institute Molecular Screening Center, 2013).

For orientation: EC50 means the concentration giving half of the maximal effect.

Structures are written as SMILES. The source made the active and inactive calls.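 The calls were made as follows: active = compounds whose fitted concentration for half of maximal LXR reporter activation EC50 is 10 µM or lower; inactive = the rest.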

In the experiment the test system is HEK293 Gal4-LXR tk-luc reporter, luminescence, 24 h. The experiment is described as follows: LXR agonists, Gal4 luciferase reporter, dose response, counter-screen for ssDAF-12 agonist project, cell-based, luminescence, HEK293, S. stercoralis campaign (AID 720737). (In general: In a reporter assay the amount or activity of a reporter protein is the signal.)

Regarding `CC(C)(C)C1CCC(=NNC(=S)Nc2cccnc2)CC1` (stereo unspecified), the EC50 was > 67.5 µM (inactive).
